Measurements from ChEMBL document CHEMBL4811257, “Dipeptide inhibitors of the prostate specific membrane antigen (PSMA): A comparison of urea and thiourea derivatives” (Bioorg Med Chem Lett, 2021).

Key:
[1] = Stability of the compound in PBS at pH 7 measured for 48 hrs by 1H-NMR analysis; type: physicochemical; conditions: buffer, pH 7, 48 h
[2] = Stability of the compound in presence of GCPII/PSMA expressing human DU-145 cells by 1H-NMR analysis; type: ADME, cell-based
[3] = target: Glutamate carboxypeptidase 2 (Homo sapiens, UniProt Q04609); assay: Inhibition of GCPII (unknown origin) expressed in DU-145 cells after 1 hr by [67Ga]Ga-DOTA-PSMA competitive binding assay with gamma counting
Chain of Glutamate carboxypeptidase 2 (Q04609 whole entry): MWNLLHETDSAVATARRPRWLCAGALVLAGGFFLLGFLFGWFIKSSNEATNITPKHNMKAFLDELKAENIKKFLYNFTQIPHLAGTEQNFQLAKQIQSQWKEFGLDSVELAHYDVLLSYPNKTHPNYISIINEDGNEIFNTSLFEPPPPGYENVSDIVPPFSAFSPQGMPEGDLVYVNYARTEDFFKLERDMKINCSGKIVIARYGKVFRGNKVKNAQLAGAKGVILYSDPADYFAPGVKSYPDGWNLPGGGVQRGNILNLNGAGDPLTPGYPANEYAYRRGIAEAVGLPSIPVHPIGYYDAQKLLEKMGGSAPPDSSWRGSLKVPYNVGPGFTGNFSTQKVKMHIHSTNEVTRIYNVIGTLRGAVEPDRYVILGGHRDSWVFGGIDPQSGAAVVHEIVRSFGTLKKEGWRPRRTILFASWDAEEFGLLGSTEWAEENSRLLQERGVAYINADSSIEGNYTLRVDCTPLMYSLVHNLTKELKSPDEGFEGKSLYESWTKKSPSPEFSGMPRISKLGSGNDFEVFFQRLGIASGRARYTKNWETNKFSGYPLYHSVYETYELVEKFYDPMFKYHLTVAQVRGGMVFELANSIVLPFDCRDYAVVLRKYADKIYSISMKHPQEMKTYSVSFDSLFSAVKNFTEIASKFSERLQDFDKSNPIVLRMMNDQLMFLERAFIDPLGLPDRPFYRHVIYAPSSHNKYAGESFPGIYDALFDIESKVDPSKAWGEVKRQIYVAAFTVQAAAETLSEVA

For O=C(O)CC[C@H](NC(=O)N[C@@H](CCC(=O)O)C(=O)O)C(=O)O, the Stabilty [1] was “Stable”, the Stabilty [2] was “Stable” and the IC50 [3] was 1.34 µM.

With O=C(O)CC[C@H](NC(=S)N[C@@H](CCC(=O)O)C(=O)O)C(=O)O the Stabilty [1] was “Stable”, the Stabilty [2] was “Stable” and the IC50 [3] was 135 µM.
